# According to patent publication US9090632B2, “Bicyclic oxazole and thiazole compounds and their use as allosteric modulators of mGluR5 receptors” (Vanderbilt University, priority 2010, dated 2015):
# Target: human mGluR5 (Homo sapiens, UniProt P41594)
# Test: Cell-based functional Ca2+ mobilization assay, potentiation of glutamate EC20 response (H10H cell-line)
# Conditions: H10H cell-line expressing recombinant human mGluR5; for Emax / Emax (%): in presence of glutamate EC20, normalized to maximal glutamate response; for EC50 / pEC50: potentiation in presence of glutamate EC20
# Method: Human embryonic kidney (HEK) cells transfected with rat mGluR5 were plated in clear bottom assay plates for assay in a Functional Drug Screening System (FDSS). In the alternative assay, HEK cells transfected with human mGluR5 were plated for assay in the FDSS. In some cases the HEK cells transfected with human mGluR5 are the H10H cell line. Alternatively, the HEK cells transfected with human mGluR5 are the H12H cell line. […] The cells were loaded with a Ca^2+-sensitive fluorescent dye (e.g., Fluo-4), and the plates were washed and placed in the FDSS instrument. After establishment of a fluorescence baseline for about three seconds, the compounds of the present invention were added to the cells, and the response in cells was measured. Five minutes later, an mGluR5 agonist (e.g., glutamate, 3,5-dihydroxyphenylglycine, or quisqualate) was added to the cells, and the response of the cells was measured. Potentiation of the agonist response of mGluR5 by the compounds in the present invention was observed as an increase in response to non-maximal concentrations of agonist (here, glutamate) in the presence of compound compared to the response to agonist in the absence of compound.
# The above described assay can be operated in two modes. In the first mode, a range of concentrations of the present compounds were added to cells, followed by a single fixed concentration of agonist. If a compound acted as a potentiator, an EC50 value for potentiation and a maximum extent of potentiation by the compound at this concentration of agonist was determined by non-linear curve fitting. In the second mode, several fixed concentrations of the present compounds were added to various wells on a plate, followed by a range of concentrations of agonist for each concentration of present compound; the EC50 values for the agonist at each concentration of compound were determined by non-linear curve fitting. A decrease in the EC50 value of the agonist with increasing concentrations of the present compounds (a leftward shift of the agonist concentration-response curve) is an indication of the degree of mGluR5 potentiation at a given concentration of the present compound. An increase in the EC50 value of the agonist with increasing concentrations of the present compounds (a rightward shift of the agonist concentration-response curve) is an indication of the degree of mGluR5 antagonism at a given concentration of the present compound. The second mode also indicates whether the present compounds also affect the maximum response to mGluR5 to agonists.
# Human mGluR5a cDNA in pCMV6-XL6 mammalian expression plasmid was purchased from OriGene Technologies, Inc. (catalogue number SC326357) and subcloned into pcDNA3.1(−). Human embryonic kidney (HEK) 293A cells were then transfected with human mGluR5a pcDNA3.1(−) using LipofectAmine 2000 (Invitrogen) and monoclones were selected and tested for functional response using a Ca^2+ mobilization assay. Monoclones were named for the species (“H” for human) plus the location on the plate (e.g. “10H”).
# HEK cells transfected with the human mGluR5a receptor were plated at 15,000 cells/well in clear-bottomed poly-D-lysine-coated assay plates (BD Falcon) in glutamate-glutamine-free growth medium and incubated overnight at 37° C. and 5% CO2. The cell-line used to obtain the data reported herein was the H10H cell-line expressing the human mGluR5 receptor. Although the H10H cell-line was used to obtain the data shown herein, the H12H cell-line expressing the human mGluR5 receptor can also be used in these assays. The following day, the growth medium was removed and the cells were washed with assay buffer containing 1× Hank's balanced salt solution (Invitrogen, Carlsbad, Calif.), 20 mM HEPES, 2.5 mM probenecid, pH 7.4 and left with 20 μL of this reagent. Following this step, the cells were loaded with calcium indicator dye, fluo-4 AM, to a final concentration of 2 μM and incubated for 40-45 min at 37° C. […]
# human mGluR5, sequence (P41594 21-1180 isoform P41594-2 limits assumed): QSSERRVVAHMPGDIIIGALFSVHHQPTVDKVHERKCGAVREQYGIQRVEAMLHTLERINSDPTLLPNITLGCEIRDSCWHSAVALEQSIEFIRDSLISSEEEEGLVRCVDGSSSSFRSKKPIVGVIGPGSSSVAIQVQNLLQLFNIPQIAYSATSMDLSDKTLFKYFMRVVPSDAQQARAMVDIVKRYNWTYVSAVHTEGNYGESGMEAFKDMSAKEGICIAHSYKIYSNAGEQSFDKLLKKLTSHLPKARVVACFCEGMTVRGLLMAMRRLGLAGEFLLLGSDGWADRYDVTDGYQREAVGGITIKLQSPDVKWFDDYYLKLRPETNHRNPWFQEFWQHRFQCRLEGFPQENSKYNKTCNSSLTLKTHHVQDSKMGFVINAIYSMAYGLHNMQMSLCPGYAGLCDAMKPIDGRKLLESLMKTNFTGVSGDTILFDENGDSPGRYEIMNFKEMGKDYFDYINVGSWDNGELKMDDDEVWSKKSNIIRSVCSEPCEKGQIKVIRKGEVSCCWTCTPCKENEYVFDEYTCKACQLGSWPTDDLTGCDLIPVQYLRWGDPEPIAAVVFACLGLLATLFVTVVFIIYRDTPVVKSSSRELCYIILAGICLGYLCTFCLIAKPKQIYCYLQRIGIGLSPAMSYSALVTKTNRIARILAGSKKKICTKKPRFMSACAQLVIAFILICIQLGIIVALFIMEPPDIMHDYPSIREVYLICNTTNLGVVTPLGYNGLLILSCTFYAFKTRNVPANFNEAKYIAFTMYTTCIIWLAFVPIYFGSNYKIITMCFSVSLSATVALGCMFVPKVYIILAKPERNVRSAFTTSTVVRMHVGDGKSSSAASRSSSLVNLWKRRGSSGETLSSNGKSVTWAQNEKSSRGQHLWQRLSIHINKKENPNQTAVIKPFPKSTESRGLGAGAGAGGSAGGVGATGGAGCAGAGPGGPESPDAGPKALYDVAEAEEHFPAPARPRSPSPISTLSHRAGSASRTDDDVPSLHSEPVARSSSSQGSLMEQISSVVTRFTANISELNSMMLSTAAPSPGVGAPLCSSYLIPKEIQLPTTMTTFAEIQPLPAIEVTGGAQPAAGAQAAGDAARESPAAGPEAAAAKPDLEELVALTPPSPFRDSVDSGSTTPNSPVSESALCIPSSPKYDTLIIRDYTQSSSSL
SMILES,Emax,EC50,Emax (%),pEC50,mGluR5 activity type (footnote)
O=C(c1ncccc1F)N1CCc2nc(COc3ccccc3)oc2C1 [Example B47],56%,> 10000 nM,,,
Cc1ccoc1C(=O)N1CCc2nc(COc3ccccc3)oc2C1 [Example B121],,,51%,6.72,
Cc1nc(C(=O)N2CCc3nc(COc4ccccc4)oc3C2)no1 [Example B161],20%,> 10000 nM,,,
O=C(c1cc2ccccc2[nH]1)N1CCc2nc(COc3ccccc3)oc2C1 [Example B112],,,12%,<4.52,
O=C(c1ccc(C(F)(F)F)o1)N1CCc2nc(COc3ccccc3)oc2C1 [Example B122],,,68%,6.67,
O=C(c1cc2ccccc2o1)N1CCc2nc(COc3ccccc3)oc2C1 [Example B120],67%,> 10000 nM,,,
COc1ccc(C(=O)N2CCc3nc(COc4ccccc4)oc3C2)s1 [Example B102],,,66%,6.34,
O=C(c1ccc(F)c(F)c1)N1CCc2nc(COc3ccccc3)oc2C1 [Example B17],,,86%,6.60,
Cc1ccc(C(=O)N2CCc3nc(COc4ccccc4)oc3C2)o1 [Example B61],52.5%,302 nM,,,
O=C(c1c[nH]c2ccccc12)N1CCc2nc(COc3ccccc3)oc2C1 [Example B117],,,69%,6.60,
N#Cc1ccccc1C(=O)N1CCc2nc(COc3ccccc3)oc2C1 [Example B46],63%,1620 nM,,,
Cc1ncc(C(=O)N2CCc3nc(COc4ccccc4)oc3C2)cn1 [Example B135],36%,> 10000 nM,,,
Cc1ccc(C(=O)N2CCc3nc(COc4ccccc4)oc3C2)cn1 [Example B132],49%,> 10000 nM,,,
COCC(=O)N1CCc2nc(COc3ccccc3)oc2C1 [Example B138],,,27%,<4.52,
CC(C)(C)OC(=O)NC(C(=O)N1CCc2nc(COc3ccccc3)oc2C1)C(C)(C)C (stereo not shown) [Example B140],,,58%,5.77,
CC(C)(C#N)C(=O)N1CCc2nc(COc3ccccc3)oc2C1 [Example B62],34%,339 nM,,,

SMILES,Emax,EC50,Emax (%),pEC50,mGluR5 activity type (footnote)
Cc1ncccc1C(=O)N1CCc2nc(COc3ccccc3)oc2C1 [Example B41],50%,6030 nM,,,
CC(C)(C)C(=O)N1CCc2nc(COc3ccccc3)oc2C1 [Example B142],,,,,**The indicated compound is a mGluR5 antagonist.
O=C(c1ccc(F)cc1)N1CCc2nc(COc3ccc(C(F)(F)F)cc3)oc2C1 [Example B128],,,25%,<4.52,
Cn1ccc(Cl)c1C(=O)N1CCc2nc(COc3ccccc3)oc2C1 [Example B113],,,45%,6.58,
O=C1CCC(C(=O)N2CCc3nc(COc4ccccc4)oc3C2)N1 (stereo not shown) [Example B105],,,22%,<4.52,
O=C(c1ccc(F)cc1)N1CCc2nc(COc3ccc(Br)cc3)oc2C1 [Example B129],27%,> 30200 nM,,,
O=C(c1c[nH]c2cccnc12)N1CCc2nc(COc3ccccc3)oc2C1 [Example B145],50%,> 10000 nM,,,
O=C(COc1ccccc1)N1CCc2nc(COc3ccccc3)oc2C1 [Example B80],60%,1910 nM,,,
O=C(c1n[nH]c2ncccc12)N1CCc2nc(COc3ccccc3)oc2C1 [Example B147],74%,363 nM,,,
O=C(c1cnc2ccccc2n1)N1CCc2nc(COc3ccccc3)oc2C1 [Example B93],,,52%,5.73,
O=C(c1ccc(F)c(F)c1)N1CCc2nc(COc3cccc(F)c3)oc2C1 [Example B29],,,75%,6.62,
O=C(c1cccc(F)c1)N1CCc2nc(COc3ccc(F)cc3)oc2C1 [Example B100],60.5%,245 nM,,,
O=C(c1n[nH]c2ccncc12)N1CCc2nc(COc3ccccc3)oc2C1 [Example B143],68%,,,5.85,
O=C(c1ncccn1)N1CCc2nc(COc3ccccc3)oc2C1 [Example B160],,,16%,<4.52,
O=C(c1cnco1)N1CCc2nc(COc3ccccc3)oc2C1 [Example B59],40.5%,2950 nM,,,
O=C(C1CCc2cc(F)ccc2O1)N1CCc2nc(COc3ccccc3)oc2C1 (stereo not shown) [Example B82],,,62%,5.7,

# Now from value to compound, other results behind:
Emax,EC50,Emax (%),pEC50,SMILES,mGluR5 activity type (footnote)
68%,1150 nM,,,O=C(c1ccc(F)cc1)N1CCc2nc(COc3ccccc3F)oc2C1 [Example B13],
,,45%,<5,O=C(c1cnn[nH]1)N1CCc2nc(COc3ccccc3)oc2C1 [Example B125],
63%,1910 nM,,,CC(Oc1ccccc1)C(=O)N1CCc2nc(COc3ccccc3)oc2C1 (stereo not shown) [Example B81],
,,64%,5.7,Cc1cccc(C(=O)N2CCc3nc(COc4ccccc4)oc3C2)n1 [Example B44],
10%,> 30200 nM,,,O=C(c1ccc(=O)[nH]c1)N1CCc2nc(COc3ccccc3)oc2C1 [Example B139],
61%,1200 nM,,,O=C(Cc1ccc(F)cc1)N1CCc2nc(COc3ccccc3)oc2C1 [Example B134],
24%,4170 nM,,,CC(C)(C)[C@H](N)C(=O)N1CCc2nc(COc3ccccc3)oc2C1 [Example B54],
82%,372 nM,,,O=C(c1c(F)cccc1F)N1CCc2nc(COc3ccccc3)oc2C1 [Example B16],
36%,> 10000 nM,,,O=C(c1ccc(F)cc1)N1CCc2nc(COc3cnccn3)oc2C1 [Example B152],
,,62%,6.00,O=C(N1CCc2nc(COc3ccccc3)oc2C1)C1(c2ccccc2)CC1 [Example B77],
76%,3390 nM,,,"O=C(c1ccc(F)cc1)N1CCc2nc(COc3ccccc3)oc2CC1 [Example B4, 6-[(4-fluorophenyl)carbonyl]-2-(phenoxymethyl)-5,6,7,8-tetrahydro-4H-[1,3]oxazolo[4,5-d]azepine]",
,,66%,5.51,O=C(c1ccc(F)cn1)N1CCc2nc(COc3cccc(F)c3)oc2C1 [Example B45],
39%,3020 nM,,,O=C(C1CC1)N1CCc2nc(COc3ccccc3)oc2C1 [Example B32],
31%,603 nM,,,O=C(c1ccc[nH]1)N1CCc2nc(COc3ccccc3)oc2C1 [Example B58],
17%,> 30200 nM,,,O=C(c1cccnn1)N1CCc2nc(COc3ccccc3)oc2C1 [Example B162],
92%,501 nM,,,O=C(c1ccc(F)cc1F)N1CCc2nc(COc3ccccc3)oc2C1 [Example B6],
60%,4070 nM,,,O=C(c1ncc(F)cc1F)N1CCc2nc(COc3ccccc3)oc2C1 [Example B38],
71%,2400 nM,,,O=C(c1ccc(F)cc1)N1CCc2nc(COc3ccccn3)oc2C1 [Example B68],
,,23%,<4.52,O=C(c1nccs1)N1CCc2nc(COc3ccccc3)oc2C1 [Example B159],
62%,> 10000 nM,,,COCc1ccc(C(=O)N2CCc3nc(COc4ccccc4)oc3C2)o1 [Example B104],
